Source: PubChem BioAssay (NCI)
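The compound was tested at five concentrations on cells cultured in 96-well plates, with a 48-hour exposure period. The concentration for 50% growth inhibition is given as GI50. TGI is the concentration that stops growth completely.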

Assays:
Experiment in all cases: inhibition of tumour cell growth, NCI panel, 48 h
NCI-H460 lung = system: NCI-H460 lung
NCI-H23 lung = system: NCI-H23 lung
IGROV1 ovarian = system: IGROV1 ovarian
NCI/ADR-RES ovarian = system: NCI/ADR-RES ovarian
MDA-MB-231 breast = system: MDA-MB-231 breast
SNB-19 CNS = system: SNB-19 CNS
A549 NSCLC = system: A549 NSCLC
HCC-2998 colon = system: HCC-2998 colon
RPMI-8226 leukemia = system: RPMI-8226 leukemia
M14 melanoma = system: M14 melanoma
U251 CNS = system: U251 CNS
COLO 205 colon = system: COLO 205 colon
K-562 leukemia = system: K-562 leukemia
HOP-92 NSCLC = system: HOP-92 NSCLC
SNB-75 CNS = system: SNB-75 CNS
PC-3 prostate = system: PC-3 prostate
MDA-MB-435 = system: MDA-MB-435
SN12C renal = system: SN12C renal
OVCAR-3 ovarian = system: OVCAR-3 ovarian
UO-31 renal = system: UO-31 renal
HT29 colon = system: HT29 colon
UACC-257 melanoma = system: UACC-257 melanoma
HOP-62 NSCLC = system: HOP-62 NSCLC
RXF 393 renal = system: RXF 393 renal
NCI-H522 lung = system: NCI-H522 lung
KM12 colon = system: KM12 colon
SK-MEL-5 melanoma = system: SK-MEL-5 melanoma
CCRF-CEM leukemia = system: CCRF-CEM leukemia
HCT-15 colon = system: HCT-15 colon
OVCAR-5 ovarian = system: OVCAR-5 ovarian
T-47D breast = system: T-47D breast
LOX IMVI melanoma = system: LOX IMVI melanoma
HS 578T breast = system: HS 578T breast
TK-10 renal = system: TK-10 renal
HL-60(TB) leukemia = system: HL-60(TB) leukemia
SF-268 CNS = system: SF-268 CNS
SF-539 CNS = system: SF-539 CNS
SK-MEL-28 melanoma = system: SK-MEL-28 melanoma
EKVX NSCLC = system: EKVX NSCLC
OVCAR-4 ovarian = system: OVCAR-4 ovarian
NCI-H226 lung = system: NCI-H226 lung
SW-620 colon = system: SW-620 colon
HCT-116 colon = system: HCT-116 colon
MOLT-4 leukemia = system: MOLT-4 leukemia
MCF7 breast = system: MCF7 breast
A498 renal = system: A498 renal
786-0 renal = system: 786-0 renal
DU-145 prostate = system: DU-145 prostate
ACHN renal = system: ACHN renal
SF-295 CNS = system: SF-295 CNS
UACC-62 melanoma = system: UACC-62 melanoma
MDA-N = system: MDA-N
SK-OV-3 ovarian = system: SK-OV-3 ovarian
OVCAR-8 ovarian = system: OVCAR-8 ovarian
CAKI-1 renal = system: CAKI-1 renal
SR leukemia = system: SR leukemia
MALME-3M melanoma = system: MALME-3M melanoma
SK-MEL-2 melanoma = system: SK-MEL-2 melanoma

Cc1cc2c(c(C)c1O)C(C)(C)CN2C(=O)C(C)(C)C
TGI (NCI-H460 lung): > 100 µM | TGI (NCI-H23 lung): > 100 µM | TGI (IGROV1 ovarian): > 100 µM | TGI (NCI/ADR-RES ovarian): 41.2 µM | TGI (MDA-MB-231 breast): > 100 µM | TGI (SNB-19 CNS): > 100 µM | TGI (A549 NSCLC): > 100 µM | TGI (HCC-2998 colon): > 100 µM | TGI (RPMI-8226 leukemia): > 100 µM | TGI (M14 melanoma): > 100 µM | TGI (U251 CNS): > 100 µM | TGI (COLO 205 colon): > 100 µM | TGI (K-562 leukemia): > 100 µM | TGI (HOP-92 NSCLC): 78.5 µM | TGI (SNB-75 CNS): 89.2 µM | TGI (PC-3 prostate): > 100 µM | TGI (MDA-MB-435): > 100 µM | TGI (SN12C renal): > 100 µM | TGI (OVCAR-3 ovarian): 28.3 µM | TGI (UO-31 renal): > 100 µM | TGI (HT29 colon): > 100 µM | TGI (UACC-257 melanoma): > 100 µM | TGI (HOP-62 NSCLC): > 100 µM | TGI (RXF 393 renal): 86.9 µM | TGI (NCI-H522 lung): > 100 µM | TGI (KM12 colon): > 100 µM | TGI (SK-MEL-5 melanoma): > 100 µM | TGI (CCRF-CEM leukemia): > 100 µM | TGI (HCT-15 colon): > 100 µM | TGI (OVCAR-5 ovarian): > 100 µM | TGI (T-47D breast): > 100 µM | TGI (LOX IMVI melanoma): > 100 µM | TGI (HS 578T breast): > 100 µM | TGI (TK-10 renal): > 100 µM | TGI (HL-60(TB) leukemia): > 100 µM | TGI (SF-268 CNS): > 100 µM | TGI (SF-539 CNS): > 100 µM | TGI (SK-MEL-28 melanoma): > 100 µM | TGI (EKVX NSCLC): > 100 µM | TGI (OVCAR-4 ovarian): > 100 µM | TGI (NCI-H226 lung): > 100 µM | TGI (SW-620 colon): > 100 µM | TGI (HCT-116 colon): > 100 µM | TGI (MOLT-4 leukemia): > 100 µM | TGI (MCF7 breast): > 100 µM | TGI (A498 renal): > 100 µM | TGI (786-0 renal): > 100 µM | TGI (DU-145 prostate): > 100 µM | TGI (ACHN renal): > 100 µM | TGI (SF-295 CNS): > 100 µM | TGI (UACC-62 melanoma): > 100 µM | TGI (MDA-N): > 100 µM | TGI (SK-OV-3 ovarian): > 100 µM | TGI (OVCAR-8 ovarian): > 100 µM

CCCc1cc2c(cc1O)CC[C@@H]1[C@@H]2CC[C@]2(C)[C@@H](O)CC[C@@H]12
TGI (NCI-H460 lung): 24.4 µM | TGI (NCI-H23 lung): 29.2 µM | TGI (IGROV1 ovarian): 30.2 µM | TGI (NCI/ADR-RES ovarian): 27.1 µM | TGI (MDA-MB-231 breast): 40.8 µM | TGI (SNB-19 CNS): 26.3 µM | TGI (A549 NSCLC): 22.9 µM | TGI (HCC-2998 colon): 33 µM | TGI (M14 melanoma): 23 µM | TGI (U251 CNS): 20.3 µM | TGI (COLO 205 colon): 34.5 µM | TGI (K-562 leukemia): 13.6 µM | TGI (HOP-92 NSCLC): 33.6 µM | TGI (CAKI-1 renal): 24.8 µM | TGI (SNB-75 CNS): 29.3 µM | TGI (PC-3 prostate): 34.5 µM | GI50 (MDA-MB-435): 2.19 µM | TGI (MDA-MB-435): 5.1 µM | TGI (SN12C renal): 24.7 µM | TGI (OVCAR-3 ovarian): 24.4 µM | TGI (UO-31 renal): 24.6 µM | TGI (HT29 colon): 31.1 µM | TGI (UACC-257 melanoma): 25.8 µM | GI50 (HOP-62 NSCLC): 16 µM | TGI (HOP-62 NSCLC): 34.2 µM | TGI (RXF 393 renal): 22.1 µM | TGI (NCI-H522 lung): 24.9 µM | TGI (KM12 colon): 22.6 µM | TGI (SK-MEL-5 melanoma): 22.4 µM | TGI (CCRF-CEM leukemia): 20.9 µM | TGI (HCT-15 colon): 18.1 µM | TGI (OVCAR-5 ovarian): 34.7 µM | TGI (T-47D breast): 32.6 µM | TGI (LOX IMVI melanoma): 24 µM | TGI (HS 578T breast): 32.3 µM | TGI (TK-10 renal): 30.1 µM | TGI (HL-60(TB) leukemia): 29.7 µM | TGI (SF-268 CNS): 28.6 µM | TGI (SR leukemia): 13.4 µM | TGI (SF-539 CNS): 24.4 µM | TGI (SK-MEL-28 melanoma): 25.8 µM | TGI (EKVX NSCLC): 26.2 µM | TGI (OVCAR-4 ovarian): 32.7 µM | TGI (NCI-H226 lung): 27.5 µM | TGI (SW-620 colon): 17.2 µM | GI50 (HCT-116 colon): 6.54 µM | TGI (HCT-116 colon): 19.8 µM | TGI (MOLT-4 leukemia): 20.4 µM | TGI (A498 renal): 32.3 µM | TGI (786-0 renal): 26.6 µM | TGI (MALME-3M melanoma): 27.9 µM | GI50 (DU-145 prostate): 18.8 µM | TGI (DU-145 prostate): 32.8 µM | TGI (ACHN renal): 25.6 µM | TGI (SF-295 CNS): 17.8 µM | GI50 (UACC-62 melanoma): 6.02 µM | TGI (UACC-62 melanoma): 19.4 µM | TGI (MDA-N): 6.05 µM | TGI (SK-OV-3 ovarian): 29.1 µM | TGI (SK-MEL-2 melanoma): 30.2 µM | TGI (OVCAR-8 ovarian): 29.1 µM

N/C(=N/N=C/c1cc(Br)cc(Br)c1O)NO
TGI (NCI-H460 lung): 27.5 µM | TGI (NCI-H23 lung): > 80.2 µM | TGI (IGROV1 ovarian): 4.66 µM | TGI (NCI/ADR-RES ovarian): 18.9 µM | TGI (MDA-MB-231 breast): 40.6 µM | TGI (SNB-19 CNS): > 80.7 µM | TGI (A549 NSCLC): 53.7 µM | TGI (HCC-2998 colon): > 53.8 µM | TGI (RPMI-8226 leukemia): 15.7 µM | TGI (M14 melanoma): 12.3 µM | TGI (U251 CNS): > 100 µM | TGI (COLO 205 colon): 49.8 µM | TGI (K-562 leukemia): 21.5 µM | TGI (HOP-92 NSCLC): 25.2 µM | TGI (CAKI-1 renal): 2.54 µM | TGI (SNB-75 CNS): > 28.3 µM | TGI (PC-3 prostate): > 59 µM | TGI (MDA-MB-435): > 81.2 µM | TGI (SN12C renal): 8.8 µM | TGI (OVCAR-3 ovarian): 13.1 µM | TGI (UO-31 renal): 8.4 µM | TGI (HT29 colon): > 100 µM | TGI (UACC-257 melanoma): 99.5 µM | TGI (HOP-62 NSCLC): 25.9 µM | TGI (RXF 393 renal): 53.4 µM | TGI (NCI-H522 lung): 88.6 µM | TGI (KM12 colon): 51.4 µM | TGI (SK-MEL-5 melanoma): 38.5 µM | TGI (CCRF-CEM leukemia): 3.26 µM | TGI (HCT-15 colon): > 46.6 µM | TGI (OVCAR-5 ovarian): > 100 µM | TGI (T-47D breast): 11.2 µM | TGI (LOX IMVI melanoma): 19.8 µM | TGI (HS 578T breast): > 75.3 µM | TGI (TK-10 renal): > 45.6 µM | TGI (HL-60(TB) leukemia): 2.31 µM | TGI (SF-268 CNS): 8.75 µM | TGI (SF-539 CNS): > 31.9 µM | TGI (SK-MEL-28 melanoma): > 100 µM | TGI (EKVX NSCLC): 75.1 µM | TGI (OVCAR-4 ovarian): 71.4 µM | TGI (NCI-H226 lung): 6.54 µM | TGI (SW-620 colon): > 100 µM | TGI (HCT-116 colon): 44 µM | TGI (MOLT-4 leukemia): 5.58 µM | TGI (MCF7 breast): > 89.3 µM | TGI (A498 renal): 16 µM | TGI (786-0 renal): > 40.7 µM | TGI (MALME-3M melanoma): 17.1 µM | TGI (DU-145 prostate): > 23.8 µM | TGI (ACHN renal): 9.66 µM | TGI (SF-295 CNS): > 45.9 µM | TGI (UACC-62 melanoma): 7.52 µM | TGI (MDA-N): > 100 µM | TGI (SK-OV-3 ovarian): > 47.6 µM | TGI (SK-MEL-2 melanoma): 82.9 µM | TGI (OVCAR-8 ovarian): > 25.4 µM
